# US20100298141A1, “SUBSTITUTED PYRIDINE N-OXIDE HERBICIDES” (E. I. DU PONT DE NEMOURS AND COMPANY, priority 2007, published 2010)
# Legend:
# Surinam grass = assay: Test C pre-/postemergence test; assay type: in vivo, Brachiaria decumbens; conditions: for Plant response rating, Surinam Grass: 31 g ai/ha, scale 0 to 100 (0 no effect, 100 complete control)
# In short: (§1)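 Seeds were planted and treated preemergence with test chemical in a non-phytotoxic solvent mixture containing surfactant. Postemergence applications of the same formulation went onto plants 2 to 18 cm tall (1- to 4-leaf stage). A dash marks no test result.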
# pigweed = assay: Test C pre-/postemergence test; assay type: in vivo, Amaranthus retroflexus; conditions: for Plant response rating, Pigweed: 31 g ai/ha, scale 0 to 100 (0 no effect, 100 complete control)
# In short: as §1
# morningglory = assay: Test C pre-/postemergence test; assay type: in vivo, Ipomoea coccinea; conditions: for Plant response rating, Morningglory: 31 g ai/ha, scale 0 to 100 (0 no effect, 100 complete control)
# In short: as §1
# crabgrass [1] = assay: Test C pre-/postemergence test; assay type: in vivo, Digitaria sanguinalis; conditions: for Plant response rating, Crabgrass, Large: 31 g ai/ha, scale 0 to 100 (0 no effect, 100 complete control)
# In short: as §1
# Italian ryegrass = assay: Test C pre-/postemergence test; assay type: in vivo, Lolium multiflorum; conditions: for Plant response rating, Ryegrass, Italian: 31 g ai/ha, scale 0 to 100 (0 no effect, 100 complete control)
# In short: as §1
# velvetleaf = assay: Test C pre-/postemergence test; assay type: in vivo, Abutilon theophrasti; conditions: for Plant response rating, Velvetleaf: 31 g ai/ha, scale 0 to 100 (0 no effect, 100 complete control)
# In short: as §1
# crabgrass [2] = assay: Test A pre-/postemergence greenhouse test; assay type: in vivo, Digitaria sanguinalis; conditions: for Plant response rating, Crabgrass, Large: 0 to 100 scale where 0 is no effect and 100 is complete control; for Crabgrass, Large plant response rating: 0 to 100 scale
# In short: (§2)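 Seeds sown in a loam soil–sand blend got a preemergence directed soil spray of compound in a non-phytotoxic solvent mixture containing surfactant. Postemergence sprays of the same formulation went at the same time onto plants 2–10 cm tall at the one- to two-leaf stage. Injury was scored visually against untreated controls after about ten days in the greenhouse.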
# corn [3] = assay: Test C pre-/postemergence test; assay type: in vivo, Zea mays; conditions: for Plant response rating, Corn: 31 g ai/ha, scale 0 to 100 (0 no effect, 100 complete control)
# In short: as §1
# corn [4] = assay: Test A pre-/postemergence greenhouse test; assay type: in vivo, Zea mays; conditions: for Plant response rating, Corn: 0 to 100 scale where 0 is no effect and 100 is complete control; for Corn plant response rating: 0 to 100 scale
# In short: as §2
# giant foxtail = assay: Test C pre-/postemergence test; assay type: in vivo, Setaria faberii; conditions: for Plant response rating, Foxtail, Giant: 31 g ai/ha, scale 0 to 100 (0 no effect, 100 complete control)
# In short: as §1
# Goosegrass = assay: Test C pre-/postemergence test; assay type: in vivo, Eleusin indica; conditions: for Plant response rating, Goosegrass: 31 g ai/ha, scale 0 to 100 (0 no effect, 100 complete control)
# In short: as §1
# eastern black nightshade = assay: Test C pre-/postemergence test; assay type: in vivo, Solanum ptycanthum; conditions: for Plant response rating, Nightshade: 31 g ai/ha, scale 0 to 100 (0 no effect, 100 complete control)
# In short: as §1
# johnsongrass = assay: Test C pre-/postemergence test; assay type: in vivo, Sorghum halepense; conditions: for Plant response rating, Johnsongrass: 31 g ai/ha, scale 0 to 100 (0 no effect, 100 complete control)
# In short: as §1
# wheat = assay: Test A pre-/postemergence greenhouse test; assay type: in vivo, Triticum aestivum; conditions: for Plant response rating, Wheat: 0 to 100 scale where 0 is no effect and 100 is complete control; for Wheat plant response rating: 0 to 100 scale
# In short: as §2
# [5] = system: common (oilseed) sunflower; assay: Test C pre-/postemergence test; assay type: in vivo, Helianthus annuus; conditions: for Plant response rating, Sunflower: 31 g ai/ha, scale 0 to 100 (0 no effect, 100 complete control)
# In short: as §1
# barnyardgrass = assay: Test A pre-/postemergence greenhouse test; assay type: in vivo, Echinochloa crus-galli; conditions: for Plant response rating, Barnyardgrass: 0 to 100 scale where 0 is no effect and 100 is complete control; for Barnyardgrass plant response rating: 0 to 100 scale
# In short: as §2
# umbrella sedge = assay: Test C flooded paddy test; assay type: in vivo, Cyperus difformis; conditions: Flood
# In short: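 In-water treatment: compound dosed into 3 cm flood over soil, water level unchanged throughout. Controls run alongside; visual assessment at day 13–15.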
# [6] = 62 g ai/ha, Preemergence, scale 0 to 100
# [7] = 125 g ai/ha, preemergence, scale 0 (no effect) to 100 (complete control)
# [8] = preemergence, 250 g ai/ha, scale 0 (no effect) to 100 (complete control)
# [9] = Postemergence, 500 g ai/ha, 0 is no effect, 100 is complete control
# [10] = Preemergence, 125 g ai/ha, 0 no effect, 100 complete control
# [11] = 250 g ai/ha, scale 0 to 100, 0 no effect, 100 complete control, 13 to 15 days
# [12] = Postemergence, 125 g ai/ha, 0 is no effect, 100 is complete control
compound,measurement,setting,value
CC(Oc1c(C[S+]([O-])c2ccc(Cl)c[n+]2[O-])c(C(F)(F)F)nn1C)C(F)(F)F (centres unmarked) [Compound 87],Surinam Grass plant response rating,Surinam grass; [6],95
same,Surinam Grass plant response rating,Surinam grass; [7],95
same,"Plant response rating, Surinam Grass",Surinam grass; Preemergence,80
same,Surinam Grass plant response rating,Surinam grass; [8],98
same,Pigweed plant response rating,pigweed; [6],75
same,Pigweed plant response rating,pigweed; [7],95
same,"Plant response rating, Pigweed",pigweed; Preemergence,10
same,Pigweed plant response rating,pigweed; [8],100
same,Morningglory plant response rating,morningglory; [6],80
same,Morningglory plant response rating,morningglory; [7],80
same,"Plant response rating, Morningglory",morningglory; Preemergence,60
same,Morningglory plant response rating,morningglory; [8],95
same,"Crabgrass, Large plant response rating",crabgrass [1]; [6],95
same,"Crabgrass, Large plant response rating",crabgrass [1]; [7],100
same,"Plant response rating, Crabgrass, Large",crabgrass [1]; Preemergence,80
same,"Crabgrass, Large plant response rating",crabgrass [1]; [8],100
same,"Ryegrass, Italian plant response rating",Italian ryegrass; [6],95
same,"Ryegrass, Italian plant response rating",Italian ryegrass; [7],100
same,"Plant response rating, Ryegrass, Italian",Italian ryegrass; Preemergence,95
same,"Ryegrass, Italian plant response rating",Italian ryegrass; [8],100
same,Velvetleaf plant response rating,velvetleaf; [6],5
same,Velvetleaf plant response rating,velvetleaf; [7],70
same,"Plant response rating, Velvetleaf",velvetleaf; Preemergence,0
same,Velvetleaf plant response rating,velvetleaf; [8],95
same,"Plant response rating, Crabgrass, Large","crabgrass [2]; Postemergence, 125 g ai/ha",80
same,"Crabgrass, Large plant response rating",crabgrass [2]; [9],90
same,"Crabgrass, Large plant response rating",crabgrass [2]; [10],90
same,"Plant response rating, Crabgrass, Large","crabgrass [2]; Preemergence, 500 g ai/ha",100
same,Corn plant response rating,corn [3]; [6],95
same,Corn plant response rating,corn [3]; [7],95
same,"Plant response rating, Corn",corn [3]; Preemergence,85
same,Corn plant response rating,corn [3]; [8],98
same,"Plant response rating, Corn","corn [4]; Postemergence, 125 g ai/ha",60
same,Corn plant response rating,corn [4]; [9],70
same,Corn plant response rating,corn [4]; [10],40
same,"Plant response rating, Corn","corn [4]; Preemergence, 500 g ai/ha",90
same,"Foxtail, Giant plant response rating",giant foxtail; [6],95
same,"Foxtail, Giant plant response rating",giant foxtail; [7],100
same,"Plant response rating, Foxtail, Giant",giant foxtail; Preemergence,85
same,"Foxtail, Giant plant response rating",giant foxtail; [8],100
same,Goosegrass plant response rating,Goosegrass; [6],100
same,Goosegrass plant response rating,Goosegrass; [7],100
same,"Plant response rating, Goosegrass",Goosegrass; Preemergence,98
same,Goosegrass plant response rating,Goosegrass; [8],100
same,Nightshade plant response rating,eastern black nightshade; [6],80
same,Nightshade plant response rating,eastern black nightshade; [7],95
same,"Plant response rating, Nightshade",eastern black nightshade; Preemergence,80
same,Nightshade plant response rating,eastern black nightshade; [8],100
same,Johnsongrass plant response rating,johnsongrass; [6],100
same,Johnsongrass plant response rating,johnsongrass; [7],100
same,"Plant response rating, Johnsongrass",johnsongrass; Preemergence,90
same,Johnsongrass plant response rating,johnsongrass; [8],100
same,"Plant response rating, Wheat","wheat; Postemergence, 125 g ai/ha",60
same,Wheat plant response rating,wheat; [9],70
same,Wheat plant response rating,wheat; [10],70
same,Wheat plant response rating,"wheat; Preemergence, 500 g ai/ha, 0 no effect, 100 complete control",100
same,Sunflower plant response rating,[5]; [6],50
same,Sunflower plant response rating,[5]; [7],55
same,"Plant response rating, Sunflower",[5]; Preemergence,40
same,Sunflower plant response rating,[5]; [8],70
same,"Plant response rating, Barnyardgrass","barnyardgrass; Postemergence, 125 g ai/ha",80
same,Barnyardgrass plant response rating,barnyardgrass; [9],90
same,Barnyardgrass plant response rating,barnyardgrass; [10],90
same,"Plant response rating, Barnyardgrass","barnyardgrass; Preemergence, 500 g ai/ha",100
same,"Plant response rating, Sedge, Umbrella","umbrella sedge; 62 g ai/ha, scale 0 to 100 (0 no effect, 100 complete control)",60
same,"Plant response rating, Sedge, Umbrella",umbrella sedge; [11],95
Cn1nc(C(F)(F)F)c(C(Cl)S(=O)(=O)c2cccc[n+]2[O-])c1OCC(F)(F)F (racemic) [Compound 36],Surinam Grass plant response rating,Surinam grass; [6],80
same,Surinam Grass plant response rating,Surinam grass; [7],100
same,"Plant response rating, Surinam Grass",Surinam grass; Preemergence,50
same,Surinam Grass plant response rating,Surinam grass; [8],100
same,Pigweed plant response rating,pigweed; [6],90
same,Pigweed plant response rating,pigweed; [7],100
same,"Plant response rating, Pigweed",pigweed; Preemergence,80
same,Pigweed plant response rating,pigweed; [8],100
same,Morningglory plant response rating,morningglory; [6],10
same,Morningglory plant response rating,morningglory; [7],60
same,"Plant response rating, Morningglory",morningglory; Preemergence,0
same,Morningglory plant response rating,morningglory; [8],75
same,"Crabgrass, Large plant response rating",crabgrass [1]; [6],80
same,"Crabgrass, Large plant response rating",crabgrass [1]; [7],100
same,"Plant response rating, Crabgrass, Large",crabgrass [1]; Preemergence,65
same,"Crabgrass, Large plant response rating",crabgrass [1]; [8],100
same,"Ryegrass, Italian plant response rating",Italian ryegrass; [6],98
same,"Ryegrass, Italian plant response rating",Italian ryegrass; [7],100
same,"Plant response rating, Ryegrass, Italian",Italian ryegrass; Preemergence,30
same,"Ryegrass, Italian plant response rating",Italian ryegrass; [8],100
same,Velvetleaf plant response rating,velvetleaf; [6],0
same,Velvetleaf plant response rating,velvetleaf; [7],40
same,"Plant response rating, Velvetleaf",velvetleaf; Preemergence,0
same,Velvetleaf plant response rating,velvetleaf; [8],70
same,"Crabgrass, Large plant response rating",crabgrass [2]; [12],50
same,"Crabgrass, Large plant response rating",crabgrass [2]; [9],80
same,"Crabgrass, Large plant response rating",crabgrass [2]; [10],70
same,"Plant response rating, Crabgrass, Large","crabgrass [2]; Preemergence, 500 g ai/ha",90
same,Corn plant response rating,corn [3]; [6],40
same,Corn plant response rating,corn [3]; [7],60
same,"Plant response rating, Corn",corn [3]; Preemergence,0
same,Corn plant response rating,corn [3]; [8],80
same,Corn plant response rating,corn [4]; [12],0
same,Corn plant response rating,corn [4]; [9],0
same,Corn plant response rating,corn [4]; [10],0
same,"Plant response rating, Corn","corn [4]; Preemergence, 500 g ai/ha",0
same,"Foxtail, Giant plant response rating",giant foxtail; [6],50
same,"Foxtail, Giant plant response rating",giant foxtail; [7],100
same,"Plant response rating, Foxtail, Giant",giant foxtail; Preemergence,30
same,"Foxtail, Giant plant response rating",giant foxtail; [8],100
same,Goosegrass plant response rating,Goosegrass; [6],100
same,Goosegrass plant response rating,Goosegrass; [7],100
same,"Plant response rating, Goosegrass",Goosegrass; Preemergence,85
same,Goosegrass plant response rating,Goosegrass; [8],100
same,Nightshade plant response rating,eastern black nightshade; [6],70
same,Nightshade plant response rating,eastern black nightshade; [7],80
same,"Plant response rating, Nightshade",eastern black nightshade; Preemergence,70
same,Nightshade plant response rating,eastern black nightshade; [8],80
same,Johnsongrass plant response rating,johnsongrass; [6],80
same,Johnsongrass plant response rating,johnsongrass; [7],90
same,"Plant response rating, Johnsongrass",johnsongrass; Preemergence,60
same,Johnsongrass plant response rating,johnsongrass; [8],90
same,Wheat plant response rating,wheat; [12],0
same,Wheat plant response rating,wheat; [9],50
same,Wheat plant response rating,wheat; [10],20
same,"Plant response rating, Wheat","wheat; Preemergence, 500 g ai/ha",60
same,Sunflower plant response rating,[5]; [6],0
same,Sunflower plant response rating,[5]; [7],0
same,"Plant response rating, Sunflower",[5]; Preemergence,0
same,Sunflower plant response rating,[5]; [8],0
same,Barnyardgrass plant response rating,barnyardgrass; [12],40
same,Barnyardgrass plant response rating,barnyardgrass; [9],80
same,Barnyardgrass plant response rating,barnyardgrass; [10],100
same,"Plant response rating, Barnyardgrass","barnyardgrass; Preemergence, 500 g ai/ha",100
same,"Plant response rating, Sedge, Umbrella","umbrella sedge; 31 g ai/ha, scale 0 to 100 (0 no effect, 100 complete control)",80
same,"Plant response rating, Sedge, Umbrella","umbrella sedge; 62 g ai/ha, scale 0 to 100, 0 no effect, 100 complete control, 13 to 15 days",85
same,"Plant response rating, Sedge, Umbrella","umbrella sedge; 125 g ai/ha, scale 0 to 100, 0 no effect, 100 complete control, 13 to 15 days",95
same,"Plant response rating, Sedge, Umbrella",umbrella sedge; [11],100
